Test results published in doi:10.1101/2024.08.19.608619, “Discovery of potent SARS-CoV-2 nsp3 macrodomain inhibitors uncovers lack of translation to cellular antiviral response” (bioRxiv, 2024).
Converted amounts (≈) assume the structure as drawn. “And” between values parts separate entries of the source, which are not always exact repeats. Equal values may be shown once. Read-outs that look alike come from different tables or passages of the source.

Experiments:
SARS-CoV-2 nsp3-mac1 = SARS-CoV-2 nsp3-mac1 (Severe acute respiratory syndrome coronavirus 2, UniProt P0DTD1); assay: biochemical; settings: HTRF IC50, Figure 4B, bioactive pure enantiomer
[1] = system: SARS-CoV-2, isolate USA-WA1/2020; assay: microbe, parasite or virus in culture; assay type: cell-based; settings: HeLa-ACE2 SARS-CoV-2 antiviral effect without P-gp inhibitor; for perc_max_measured: maximum measured response of dose series; for perc_min_measured: minimum measured response of dose series; for EC50: read-out: ec50; for EC90: read-out: ec90
[2] = Hepatic microsomal stability, HLM; assay type: in vitro ADME, human; settings: In vitro human liver microsomal stability; for perc_remaining_no_cofactor: no cofactor
[3] = Hepatic microsomal stability, MLM; assay type: in vitro ADME
HeLa-ACE2 cells = settings: protocol HeLa-ACE2 cytotoxicity; for perc_max_measured: highest measured response of the dose series; for perc_min_measured: lowest measured response of the dose series
LogD = settings: pH 7.4, In vitro LogD
in vitro [4] = settings: human
[5] = In vitro kinetic solubility; settings: In vitro kinetic solubility, ph 7.4
[6] = Permeability Papp (AB) MDR1/MDCKII; settings: for perc_recovery_a_to_b_mean / papp_b_to_a_mean / efflux_ratio / perc_recovery_b_to_a_mean / papp_a_to_b_mean: In vitro MDR1-MDCKII permeability; for perc_recovery_a_to_b_mean / perc_recovery_a_to_b_inhibitor_mean: recovery A to B; for papp_b_to_a_mean: B to A; for perc_recovery_b_to_a_mean / perc_recovery_b_to_a_inhibitor_mean: recovery B to A; for perc_recovery_a_to_b_inhibitor_mean / perc_recovery_b_to_a_inhibitor_mean: MDR1-MDCKII; for papp_a_to_b_mean: A to B
MDR1 = assay: Permeability Papp (AB) MDR1/MDCKII; settings: dog, MDCK-MDR1, papp_a_to_b_mean, In vitro MDR1-MDCKII permeability, A to B, no inhibitor
SARS-CoV-2 = assay: Antiviral effect in iPSC-derived pneumocyte system; assay type: cell-based; settings: iPSC pneumocytes SARS-CoV-2 antiviral effect; for perc_max_measured: maximum measured response of dose series; for perc_min_measured: minimum measured response of dose series
iPSC pneumocytes = iPSC pneumocytes cytotoxicity; assay type: cell-based; settings: for perc_max_measured: highest measured response of the dose series; for perc_min_measured: lowest measured response of the dose series
Text: Supplement media-1.zip/Cytotoxicity.csv, table | column: cc10; cc50; perc_min_measured; perc_max_measured

in vitro [7] = assay: in vitro; design: Cytotoxicity in iPSC-derived pneumocytes, CC50; settings: human, ipsc-derived pneumocytes, read-out: 50.0
Text: Finally, we consider the hypothesis that interferon response triggers ADP-ribosylation, thus profiling the compounds in enhanced and physiologically relevant interferon environments could reveal detectable antiviral effects. […] Furthermore, HeLa-ACE2 cells, and all cancerous cell lines, display defective innate immune response ([1]). As such, we also assess our compound in a primary-like iPSC-derived pneumocyte system (Figure 7C), showing likewise a lack of antiviral activity in this physiologically relevant innate immunity system.

in vitro [8] = settings: human, hela-ace2 cells, 50.0
[9] = Severe acute respiratory syndrome coronavirus 2
[10] = In vitro mouse liver microsomal stability
[11] = In vitro mouse liver microsomal stability, no cofactor
[12] = protocol iPSC pneumocytes cytotoxicity

Structure (SMILES) | perc_max_measured [1] | perc_min_measured [1] | perc_remaining [2] | t_half [2] | perc_remaining_no_cofactor [2] | perc_remaining [3, 10] | t_half [3, 10] | perc_remaining_no_cofactor [3, 11] | cc10 (HeLa-ACE2 cells) | perc_max_measured (HeLa-ACE2 cells) | perc_min_measured (HeLa-ACE2 cells) | EC50 [1] | EC90 [1] | perc_max_measured (SARS-CoV-2) | perc_min_measured (SARS-CoV-2) | clint [2] | clint [3, 10] | CC50 (HeLa-ACE2 cells) | logd (LogD) | CC50 at 24 h (in vitro [8]) | also measured
CCNC(=O)c1cc2c(NC(c3ccc4c(c3)S(=O)(=O)CCC4)C(C)C)ncnc2[nH]1 (centres unmarked) [ASAP-0012349] | 108.517% | 90.612% | 0.0% | 1.9 min | 102.0% | 43.0% | 30.8 min | 114.0% | > 20.0 µM | 99.328% | 84.17% | – | – | – | – | – | – | – | – | – | IC50 (SARS-CoV-2 nsp3-mac1): 0.031 µM; EC50 [1, 9]: > 20 µM; EC90 [1, 9]: > 20 µM; microsomal CLint ([2]; human, liver microsomes): 892 µL/min/mg; microsomal CLint ([3]; mouse, liver microsomes, In vitro mouse liver microsomal stability): 54 µL/min/mg; logd (LogD; pH 7.4, logd): 2.8; CC50 (in vitro [4]): > 20 µM; solubility ([5]; pH 7.4, solubility_mean): 316 µM (≈ 140 µg/mL); perc_recovery_a_to_b_mean ([6]; no inhibitor): 66.9%; Papp A→B (MDR1): 0.532 ×10⁻⁶ cm/s
CC(C)[C@@H](Nc1ncnc2[nH]c(-c3cnn(C)c3)cc12)c1ccc2c(c1)S(=O)(=O)CCC2 (single isomer, unassigned) [ASAP-0012329] | 119.22% | 72.714% | 0.0% | 4.1 min | 105.0% | 10.0% | 11.9 min | 102.0% | > 20.0 µM | 91.281% | 71.036% | > 20 µM | > 20 µM | 103.795% | 0.206% | 405.0 µL/min/mg | 140.0 µL/min/mg | > 20 µM | 3.2 | > 20 µM | EC50 (SARS-CoV-2): 7.59 µM; EC90 (SARS-CoV-2): > 50 µM; CC50 (iPSC pneumocytes): > 50 µM; cc10 (iPSC pneumocytes): 30.402 µM; perc_max_measured (iPSC pneumocytes): 108.573%; perc_min_measured (iPSC pneumocytes): 85.97%; CC50 (in vitro [7]; ASAP-0008327-001=ASAP-0012329-001): > 50 µM; solubility_mean [5]: 111 µM (≈ 50 µg/mL); papp_b_to_a_mean ([6]; no inhibitor): 3.9 ×10⁻⁶ cm/s and 5.0 ×10⁻⁶ cm/s; efflux_ratio ([6]; no inhibitor): 40.3 and 73.5; perc_recovery_a_to_b_mean ([6]; no inhibitor): 72.3% and 98.8% and 68.0%; perc_recovery_b_to_a_mean ([6]; no inhibitor): 79.2% and 106.0%; perc_recovery_a_to_b_inhibitor_mean ([6]; with inhibitor Cyclosporin A): 77.4%; perc_recovery_a_to_b_inhibitor_mean ([6]; with inhibitor Verapamil): 104.0%; perc_recovery_b_to_a_inhibitor_mean ([6]; with inhibitor Cyclosporin A): 63.1%; perc_recovery_b_to_a_inhibitor_mean ([6]; with inhibitor Verapamil): 96.9%
CC(C)[C@H](Nc1ncnc2[nH]c(-c3cnn(CC(N)=O)c3)cc12)c1ccc2c(c1)S(=O)(=O)CCC2 (single isomer, unassigned) [ASAP-0011428] | 108.399% | 92.21% | 2.0% | 7.0 min | 115.0% | 53.0% | 42.6 min | 98.0% | > 20.0 µM | 96.287% | 76.492% | > 20 µM | > 20 µM | 119.318% | 70.174% | 240.0 µL/min/mg | 39.0 µL/min/mg | > 20 µM | 2.1 | > 20 µM | EC50 (SARS-CoV-2): > 50 µM; EC90 (SARS-CoV-2): > 50 µM; CC50 (iPSC pneumocytes): > 50 µM; cc10 (iPSC pneumocytes): > 50.0 µM; perc_max_measured (iPSC pneumocytes): 106.229%; perc_min_measured (iPSC pneumocytes): 92.999%; CC50 (in vitro [7]; ASAP-0008327-001=ASAP-0011428-001): > 50 µM; solubility_mean [5]: 338 µM (≈ 167 µg/mL); papp_a_to_b_mean ([6]; mean): 1.98 ×10⁻⁶ cm/s; papp_a_to_b_mean ([6]; no inhibitor): 0.0832 ×10⁻⁶ cm/s; papp_b_to_a_mean ([6]; no inhibitor): 0.072 ×10⁻⁶ cm/s; efflux_ratio ([6]; no inhibitor): 0.9; perc_recovery_a_to_b_mean ([6]; mean): 85.9%; perc_recovery_a_to_b_mean ([6]; no inhibitor): 65.5%; perc_recovery_b_to_a_mean ([6]; no inhibitor): 72.9%; perc_recovery_a_to_b_inhibitor_mean ([6]; with inhibitor Verapamil): 73.2%; perc_recovery_b_to_a_inhibitor_mean ([6]; with inhibitor Verapamil): 79.8%
CC(C)[C@@H](Nc1ncnc2[nH]c(-c3cnn(C)c3C#N)cc12)c1ccc2c(c1)OCCO2 (racemic) [ASAP-0008275] | 109.522% | 3.811% and 0.0% | 25.0% | 22.6 min | 111.0% | 3.0% | 7.7 min | – | > 50.0 µM | 136.373% | 77.442% | 1.73 µM and 1.72 µM | 4.31 µM and 4.23 µM | 108.15% and 116.315% | 1.229% and 8.563% | 74.0 µL/min/mg | 218.0 µL/min/mg | > 50 µM | 3.0 | > 50 µM | perc_remaining_no_cofactor ([3]; In vitro mouse liver microsomal stability; no cofactor): 97.0%; CC50 (iPSC pneumocytes; [12]): > 50 µM; cc10 (iPSC pneumocytes; [12]): 13.408 µM; perc_max_measured (iPSC pneumocytes; [12]): 110.873% and 99.023%; perc_min_measured (iPSC pneumocytes; [12]): 69.382% and 78.095%; CC50 (in vitro [7]; ASAP-0008327-001=ASAP-0008275-001): > 50 µM; solubility_mean [5]: 17 µM (≈ 7.3 µg/mL); papp_a_to_b_mean ([6]; mean): 4.2 ×10⁻⁶ cm/s; perc_recovery_a_to_b_mean ([6]; mean): 36.0%
CNCc1cc(-c2cc3c(N[C@@H](c4ccc5c(c4)S(=O)(=O)NCC5)C(C)C)ncnc3[nH]2)co1 [ASAP-0011243] | 99.818% | 81.688% | 47.0% | 35.9 min | 93.0% | 49.0% | 40.0 min | 95.0% | > 20.0 µM | 96.42% | 81.709% | > 20 µM | > 20 µM | 102.14% | 30.967% | 46.0 µL/min/mg | 42.0 µL/min/mg | > 20 µM | 1.9 | > 20 µM | EC50 (SARS-CoV-2): 30.7 µM; EC90 (SARS-CoV-2): > 50 µM; CC50 (iPSC pneumocytes): > 50 µM; cc10 (iPSC pneumocytes): > 50.0 µM; perc_max_measured (iPSC pneumocytes): 101.3%; perc_min_measured (iPSC pneumocytes): 90.486%; CC50 (in vitro [7]; ASAP-0008327-001=ASAP-0011243-001): > 50 µM; solubility_mean [5]: 372 µM (≈ 179 µg/mL); papp_a_to_b_mean ([6]; mean): 1.2 ×10⁻⁶ cm/s; perc_recovery_a_to_b_mean ([6]; mean): 76.5%
